Each structure is given as a SMILES string. Some results are limits rather than exact numbers.

For the first test, the target named is T1, BaF3 BRAF-KIAA1549 fusion cells (Homo sapiens, UniProt P15056).
T1 construct: The BRAF-KIAA1549 fusion mutant was subcloned into pMXs-IRES-Blasticidin (RTV-016, Cell Biolabs, San Diego, CA); No tag given; Q9HCM3 (UPF0606 protein KIAA1549)
T1 sequence (P15056 whole entry, change not shown, the tested form may be a part): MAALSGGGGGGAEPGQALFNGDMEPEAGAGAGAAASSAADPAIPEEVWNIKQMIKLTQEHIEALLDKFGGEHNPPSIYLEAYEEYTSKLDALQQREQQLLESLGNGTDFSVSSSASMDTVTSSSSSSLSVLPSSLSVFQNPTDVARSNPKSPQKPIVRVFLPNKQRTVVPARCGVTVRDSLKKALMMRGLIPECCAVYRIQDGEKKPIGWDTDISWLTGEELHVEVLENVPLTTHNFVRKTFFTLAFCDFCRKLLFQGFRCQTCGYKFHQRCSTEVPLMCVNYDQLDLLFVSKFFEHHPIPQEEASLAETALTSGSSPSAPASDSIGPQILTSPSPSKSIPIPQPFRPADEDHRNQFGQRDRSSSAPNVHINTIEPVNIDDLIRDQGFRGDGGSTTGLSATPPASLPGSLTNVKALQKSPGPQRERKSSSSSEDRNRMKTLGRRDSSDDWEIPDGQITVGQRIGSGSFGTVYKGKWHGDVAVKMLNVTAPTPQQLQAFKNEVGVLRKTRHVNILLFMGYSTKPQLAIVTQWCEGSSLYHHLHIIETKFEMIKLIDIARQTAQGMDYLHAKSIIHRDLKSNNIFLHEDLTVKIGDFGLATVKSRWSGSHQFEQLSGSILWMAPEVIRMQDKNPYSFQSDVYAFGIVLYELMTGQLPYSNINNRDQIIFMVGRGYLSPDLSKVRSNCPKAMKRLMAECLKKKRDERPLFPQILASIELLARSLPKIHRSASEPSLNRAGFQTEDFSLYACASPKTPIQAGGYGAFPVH
Nature of the test: BaF3 BRAF-KIAA1549 fusion cell proliferation assay (CellTiterGlo, 96 hours). The following applies: Table A1. Format: cell-based. On the procedure: Retroviral Production: The BRAF-KIAA1549 fusion mutant was subcloned into pMXs-IRES-Blasticidin (RTV-016, Cell Biolabs, San Diego, CA). Retrovirus was produced by transfection of HEK 293T cells with the retroviral BRAF mutant expression vector pMXs-IRES-Blasticidin (RTV-016, Cell Biolabs), pCMV-Gag-Pol vector and pCMV-VSV-G-Envelope vector. Briefly, HEK 293T cells were plated in Poly-D-lysine coated 6-well plate (2.5×10^5 cells per well) and incubated overnight. The next day, retroviral plasmids (1 μg of BRAF-KIAA fusion mutant, 0.32 μg of pCMV-Gag-Pol and 0.165 μg pCMV-VSV-G) were mixed in 300 μL of Optimem (31985, Life Technologies). The mixture was incubated at room temperature for 5 minutes and then added to Optimem containing transfection reagent Lipofectamine (11668, Invitrogen) and incubated for 20 minutes. The mixture was then added dropwise to HEK 293T cells. The next day the medium was replaced with fresh culture medium and retrovirus was harvested at 24 hours.
Generation of BRAF-KIAA1549 fusion stable cell line: BaF3 cells were plated in V-bottom 96 well plate (COSTAR #3894) in 80 μL of RPMI/10% FBS and 0.01 ng/mL mouse IL-3, supplemented with 8 μg/mL polybrene (4×10^4 cells/well). Cells were transduced with 20 μL of BRAF-KIAA1549 fusion viral supernatant by centrifuging for 30 minutes at 1000 rpm. Cells were placed in a 37° C. incubator overnight. Next day 100 μL of RPMI/10% FBS and 0.01 ng/mL mouse IL-3 was added. After 24 hours, 100 μL of cells were transferred to a 24 well plate containing 900 μL of RPM/10% FBS and 15 μg/mL Blasticidin. Contents of the 24 well plate were sampled for cell viability via CellTiterGlo (Promega) over a 2-week period.
Assay for cell proliferation: BaF3 BRAF-KIAA1549 fusion cells were resuspended at 1.5×10^5 c/mL in RPMI containing 10% Heat Inactivated FBS, 1% L-glutamine and dispensed in duplicate (7×10^4 c/well) into 384 well plates. To determine the effect of compound on cell proliferation, BaF3 BRAF-KIAA1549 fusion cells were incubated for 96 hours in the presence of vehicle control (DMSO) or compound at varying concentrations. Inhibition of cell growth was determined by luminescent quantification (Envision by Perkin Elmer) of intracellular ATP content using CellTiterGlo (Promega), according to the protocol provided by the manufacturer. To determine the IC50 values, the vehicle-treated cells were normalized as viable cells and analyzed using the CDD Vault, Collaborative Drug Discovery, Burlingame, CA (the Levenberg-Marquardt algorithm; Levenberg, K., […]; Marquardt, D., 1963).
Tables A1 and A2 assign each compound a code for potency in the BaF3 BRAF-KIAA1549 fusion cell proliferation assay: A, B, C, or D. According to the code, A represents an IC50 value <20 nM; B represents an IC50 value ≥20 nM and <100 nM; C represents an IC50 value ≥100 nM and <500 nM; and D represents an IC50 value ≥500 nM.
Take `CNc1cc2ncc(-c3cc(NC(=O)C[C@@H]4C[C@H](C(F)(F)F)CCO4)cnc3C)cc2cn1` (single isomer, unassigned) [Compound 35]: the GI50 was in the range of 20 to 100 nM. Same read-out and setting: next, `CNc1cc2ncc(-c3cc(NC(=O)CN4CCC[C@H](C(F)(F)F)C4)ccc3C)cc2cn1` [Compound 63, (S)—N-(4-Methyl-3-(7-(methylamino)-1,6-naphthyridin-3-yl)phenyl)-2-(3-(trifluoromethyl)piperidin-1-yl)acetamide]: 20 to 100 nM; `CNc1cc2ncc(-c3cc(NC(=O)c4ccnc(C5CC(F)(F)C5)c4)cnc3C)cc2cn1` [Compound 34, 2-(3,3-Difluorocyclobutyl)-N-(6-methyl-5-(7-(methylamino)-1,6-naphthyridin-3-yl)pyridin-3-yl)isonicotinamide]: 20 to 100 nM; `CNc1cc2ncc(-c3cc(NC(=O)c4ccnc(C5CC(F)(F)C5)c4)ccc3C)cc2cn1` [Compound 17, 2-(3,3-Difluorocyclobutyl)-N-(4-methyl-3-(7-(methylamino)-1,6-naphthyridin-3-yl)phenyl)isonicotinamide]: < 20 nM. In turn, `CNc1cc2ncc(-c3cc(NC(=O)c4cc(C(C)(C)C#N)ccn4)c(F)cc3F)cc2cn1` [Compound 43, 4-(2-Cyanopropan-2-yl)-N-(2,4-difluoro-5-(7-(methylamino)-1,6-naphthyridin-3-yl)phenyl)picolinamide] gave a GI50 of 20 to 100 nM.

In turn, `CNc1cc2ncc(-c3cc(NC(=O)c4cc(C(C)(C)C#N)ccn4)ccc3Cl)cc2cn1` [Compound 41, N-(4-Chloro-3-(7-(methylamino)-1,6-naphthyridin-3-yl)phenyl)-4-(2-cyanopropan-2-yl)picolinamide] returned a concentration for 50% growth inhibition (GI50) of 20 to 100 nM. The same measure, in the same setting: next, `CCNc1cc2ncc(-c3cc(NC(=O)c4ccnc(C5(F)CC5)c4)ccc3C)cc2cn1` [Compound 153, N-(3-(7-(ethylamino)-1,6-naphthyridin-3-yl)-4-methylphenyl)-2-(1-fluorocyclopropyl)isonicotinamide]: 20 to 100 nM. Same read-out and setting: with `CNc1cc2ncc(-c3cc(NC(=O)c4cc(C(C)(C)C#N)ccn4)nnc3C)cc2cn1` [Compound 77, 4-(2-cyanopropan-2-yl)-N-(6-methyl-5-(7-(methylamino)-1,6-naphthyridin-3-yl)pyridazin-3-yl)picolinamide] the figure was 20 to 100 nM.

Staying with this test, now noted: Table A2.
In the case of `CNc1cc2ncc(-c3cc(NC(=O)c4cnc5n4C[C@H](C)CC5)ccc3C)cc2cn1` (single isomer, unassigned) [Compound 230], the GI50 lay within 20 to 100 nM. The molecule `CNc1cc2ncc(-c3cc(NC(=O)c4noc5c4CC(C)(C)CC5)cnc3C)cc2cn1` [Compound 257, 5,5-dimethyl-N-(6-methyl-5-(7-(methylamino)-1,6-naphthyridin-3-yl)pyridin-3-yl)-4,5,6,7-tetrahydrobenzo[d]isoxazole-3-carboxamide] returned a GI50 of 20 to 100 nM. In the case of `CNc1cc2ncc(-c3cc(NC(=O)c4noc5c4COCC5)cnc3C)cc2cn1` [Compound 246, N-(6-methyl-5-(7-(methylamino)-1,6-naphthyridin-3-yl)pyridin-3-yl)-6,7-dihydro-4H-pyrano[3,4-d]isoxazole-3-carboxamide], the GI50 was ≥ 500 nM. Regarding `CNc1cc2ncc(-c3cc(NC(=O)c4cccc(C(C)(C)C#N)c4)ccc3C)cc2cn1` [Compound 193, 3-(2-cyanopropan-2-yl)-N-(4-methyl-3-(7-(methylamino)-1,6-naphthyridin-3-yl)phenyl)benzamide], the GI50 is < 20 nM. On to `CNc1cc2ncc(-c3cc(NC(=O)c4n[nH]c5c4CCCC5)cnc3C)cc2cn1` [Compound 229, N-(6-methyl-5-(7-(methylamino)-1,6-naphthyridin-3-yl)pyridin-3-yl)-4,5,6,7-tetrahydro-1H-indazole-3-carboxamide], for which the GI50 was in the range of 20 to 100 nM. Consider `CNc1cc2ncc(-c3cc(NC(=O)c4ccnc(C5(F)CC5)c4)c(F)cc3C)cc2cn1` [Compound 221, N-(2-fluoro-4-methyl-5-(7-(methylamino)-1,6-naphthyridin-3-yl)phenyl)-2-(1-fluorocyclopropyl)isonicotinamide], for which the GI50 is 20 to 100 nM.

Usually GI50 stands for the concentration that inhibits growth by half. A low value points to more potent growth inhibition.

The values are drawn from patent publication US20250017914A1, “6-AZA-QUINOLINE DERIVATIVES AND RELATED USES” (Black Diamond Therapeutics, Inc., priority 2021, published 2025).
